According to patent US20260295053A1, “COMPOUNDS FOR DEGRADATION AND INHIBITION OF KRAS (G12D) PROTEIN” (Shenzhen Ionova Life Science Co., Ltd., priority 2023, published 2026):

Assays:
KRAS (G12D) = target: T1, KRAS (G12D) (Homo sapiens, UniProt P01116, G12D); assay: KRAS (G12D) cellular degradation assay in AsPC-1 cells; format: cell-based; conditions: 24 hours, antibody fluorescence (Odyssey CLX), DC50 half-maximal degradation concentration
T1 construct: in-cell western with KRAS G12D antibody after 24 h
T1 sequence (P01116 1-188 isoform P01116-2 G12D): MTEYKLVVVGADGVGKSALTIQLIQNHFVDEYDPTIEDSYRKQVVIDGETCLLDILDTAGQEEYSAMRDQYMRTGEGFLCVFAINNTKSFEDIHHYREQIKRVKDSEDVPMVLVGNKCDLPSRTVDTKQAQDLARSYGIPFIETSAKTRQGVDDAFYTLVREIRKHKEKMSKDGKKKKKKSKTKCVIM
Method in brief: (§1)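 Degradation: 22,000 cells/well grown to ~90% confluency, 24 h compound, fixed/permeabilised, anti-KRAS G12D + β-actin antibodies, near-IR fluorescence, DC50. Proliferation: 3,500 cells/well overnight, 6 d compound, CellTiter Glo luminescence, IC50. Dosing […]–1.5 nM final, 1:3 steps.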

AsPC-1 cells = assay: AsPC-1 cell proliferation assay (CellTiter Glo); format: cell-based; conditions: 6 days
Method in brief: as §1

## CNc1nc2ccc(C#C[C@H](CO)NC(=O)[C@@H]3C[C@@H](O)CN3C(=O)[C@H](C(C)C)n3cc(-c4ccc(COc5c(-c6c(C)c(F)cc7[nH]ncc67)c(C6CC6)cc6c(N7C[C@@H]8C[C@H]7CN8)nc(OC[C@H](C)OC)nc56)cc4)nn3)cc2s1 [Example 176, (2S,4R)-1-((2S)-2-(4-(4-(((4-((1S,4S)-2,5-diazabicyclo[2.2.1]heptan-2-yl)-6-cyclopropyl-7-(6-fluoro-5-methyl-1H-indazol-4-yl)-2-((S)-2-methoxypropoxy)quinazolin-8-yl)oxy)methyl)phenyl)-1H-1,2,3-triazol-1-yl)-3-methylbutanoyl)-4-hydroxy-N—((R)-1-hydroxy-4-(2-(methylamino)benzo[d]thiazol-6-yl)but-3-yn-2-yl)pyrrolidine-2-carboxamide]
KRAS (G12D)
  DC50: < 10 nM
AsPC-1 cells; Homo sapiens, ASPC1, 144 h
  IC50: < 10 nM

## CCn1nccc1-c1ccc([C@H](CO)NC(=O)[C@@H]2C[C@@H](O)CN2C(=O)[C@H](C(C)C)n2cc(-c3ccc(COc4c(-c5c(C)c(F)cc6[nH]ncc56)c(C5CC5)cc5c(N6CCCCCC6)nc(OC[C@H](C)OC)nc45)cc3)nn2)cc1 [Example 177, (2S,4R)-1-((2S)-2-(4-(4-(((4-(azepan-1-yl)-6-cyclopropyl-7-(6-fluoro-5-methyl-1H-indazol-4-yl)-2-((S)-2-methoxypropoxy)quinazolin-8-yl)oxy)methyl)phenyl)-1H-1,2,3-triazol-1-yl)-3-methylbutanoyl)-N—((R)-1-(4-(1-ethyl-1H-pyrazol-5-yl)phenyl)-2-hydroxyethyl)-4-hydroxypyrrolidine-2-carboxamide]
KRAS (G12D)
  DC50: 10 to 100 nM
AsPC-1 cells; Homo sapiens, ASPC1, 144 h
  IC50: 10 to 100 nM

## CCn1nccc1-c1ccc([C@H](CO)NC(=O)[C@@H]2C[C@@H](O)CN2C(=O)[C@H](C(C)C)n2cc(-c3ccc(COc4c(-c5c(C)c(F)cc6[nH]ncc56)c(C5CC5)cc5c(N6CCNCC[C@H]6C)nc(OC[C@H](C)OC)nc45)cc3)nn2)cc1 [Example 178, (2S,4R)-1-((2S)-2-(4-(4-(((6-cyclopropyl-7-(6-fluoro-5-methyl-1H-indazol-4-yl)-2-((S)-2-methoxypropoxy)-4-((R)-7-methyl-1,4-diazepan-1-yl)quinazolin-8-yl)oxy)methyl)phenyl)-1H-1,2,3-triazol-1-yl)-3-methylbutanoyl)-N—((R)-1-(4-(1-ethyl-1H-pyrazol-5-yl)phenyl)-2-hydroxyethyl)-4-hydroxypyrrolidine-2-carboxamide]
KRAS (G12D)
  DC50: < 10 nM
AsPC-1 cells
  IC50: < 10 nM

## CO[C@@H](C)COc1nc(N2CCCNCC2)c2cc(C3CC3)c(-c3c(C)c(F)cc4[nH]ncc34)c(OCc3ccc(-c4cn([C@H](C(=O)N5C[C@H](O)C[C@H]5C(=O)N[C@@H](CO)c5ccc(-c6scnc6C)cc5)C(C)C)nn4)cc3)c2n1 [Example 179, (2S,4R)-1-((2S)-2-(4-(4-(((6-cyclopropyl-4-(1,4-diazepan-1-yl)-7-(6-fluoro-5-methyl-1H-indazol-4-yl)-2-((S)-2-methoxypropoxy)quinazolin-8-yl)oxy)methyl)phenyl)-1H-1,2,3-triazol-1-yl)-3-methylbutanoyl)-4-hydroxy-N—((R)-2-hydroxy-1-(4-(4-methylthiazol-5-yl)phenyl)ethyl)pyrrolidine-2-carboxamide]
KRAS (G12D)
  DC50: < 10 nM
AsPC-1 cells; Homo sapiens, ASPC1, 144 h
  IC50: < 10 nM

## CCn1nccc1-c1ccc([C@H](CO)NC(=O)[C@@H]2C[C@@H](O)CN2C(=O)[C@H](C(C)C)n2cc(-c3ccc(COc4c(-c5c(C)c(F)cc6[nH]ncc56)c(C5CC5)cc5c(N6CCCOCC6)nc(OC[C@H](C)OC)nc45)cc3)nn2)cc1 [Example 180, (2S,4R)-1-((2S)-2-(4-(4-(((6-cyclopropyl-7-(6-fluoro-5-methyl-1H-indazol-4-yl)-2-((S)-2-methoxypropoxy)-4-(1,4-oxazepan-4-yl)quinazolin-8-yl)oxy)methyl)phenyl)-1H-1,2,3-triazol-1-yl)-3-methylbutanoyl)-N—((R)-1-(4-(1-ethyl-1H-pyrazol-5-yl)phenyl)-2-hydroxyethyl)-4-hydroxypyrrolidine-2-carboxamide]
KRAS (G12D)
  DC50: < 10 nM
AsPC-1 cells; Homo sapiens, ASPC1, 144 h
  IC50: < 10 nM

## CCn1nccc1-c1ccc([C@H](CO)NC(=O)[C@@H]2C[C@@H](O)CN2C(=O)[C@H](C(C)C)n2cc(-c3ccc(COc4c(-c5c(C)c(F)cc6[nH]ncc56)c(C5CC5)cc5c(N6CCC=CCC6)nc(OC[C@H](C)OC)nc45)cc3)nn2)cc1 [Example 181, (2S,4R)-1-((2S)-2-(4-(4-(((6-cyclopropyl-7-(6-fluoro-5-methyl-1H-indazol-4-yl)-2-((S)-2-methoxypropoxy)-4-(2,3,6,7-tetrahydro-1H-azepin-1-yl)quinazolin-8-yl)oxy)methyl)phenyl)-1H-1,2,3-triazol-1-yl)-3-methylbutanoyl)-N—((R)-1-(4-(1-ethyl-1H-pyrazol-5-yl)phenyl)-2-hydroxyethyl)-4-hydroxypyrrolidine-2-carboxamide]
KRAS (G12D)
  DC50: 10 to 100 nM
AsPC-1 cells
  IC50: 10 to 100 nM

## CCn1nccc1-c1ccc([C@@H](NC(=O)[C@@H]2C[C@@H](O)CN2C(=O)[C@H](C(C)C)n2cc(-c3ccc(COc4c(-c5c(C)c(F)cc6[nH]ncc56)c(C5CC5)cc5c(N6CCCNCC6)nc(OC[C@H](C)OC)nc45)cc3)nn2)[C@H](C)O)cc1 [Example 184, (2S,4R)-1-((2S)-2-(4-(4-(((6-cyclopropyl-4-(1,4-diazepan-1-yl)-7-(6-fluoro-5-methyl-1H-indazol-4-yl)-2-((S)-2-methoxypropoxy)quinazolin-8-yl)oxy)methyl)phenyl)-1H-1,2,3-triazol-1-yl)-3-methylbutanoyl)-N-((1R,2S)-1-(4-(1-ethyl-1H-pyrazol-5-yl)phenyl)-2-hydroxypropyl)-4-hydroxypyrrolidine-2-carboxamide]
KRAS (G12D)
  DC50: < 10 nM
AsPC-1 cells; Homo sapiens, ASPC1, 144 h
  IC50: < 10 nM

## CCn1nccc1-c1ccc([C@@H](NC(=O)[C@@H]2C[C@@H](O)CN2C(=O)[C@H](C(C)C)n2cc(-c3ccc(COc4c(-c5c(C)c(F)cc6[nH]ncc56)c(C5CC5)cc5c(N(C)[C@@H]6CCNC6)nc(OC[C@H](C)OC)nc45)cc3)nn2)[C@H](C)O)c2c1CC2 [Example 186, (2S,4R)-1-((2S)-2-(4-(4-(((6-cyclopropyl-7-(6-fluoro-5-methyl-1H-indazol-4-yl)-2-((S)-2-methoxypropoxy)-4-(methyl((R)-pyrrolidin-3-yl)amino)quinazolin-8-yl)oxy)methyl)phenyl)-1H-1,2,3-triazol-1-yl)-3-methylbutanoyl)-N-((1R,2S)-1-(5-(1-ethyl-1H-pyrazol-5-yl)bicyclo[4.2.0]octa-1(6),2,4-trien-2-yl)-2-hydroxypropyl)-4-hydroxypyrrolidine-2-carboxamide]
KRAS (G12D)
  DC50: < 10 nM
AsPC-1 cells; Homo sapiens, ASPC1, 144 h
  IC50: < 10 nM

## CO[C@@H](C)COc1nc(N(C)[C@@H]2CCNC2)c2cc(C3CC3)c(-c3c(C)c(F)cc4[nH]ncc34)c(OCc3ccc(-c4cn([C@H](C(=O)N5C[C@H](O)C[C@H]5C(=O)N[C@H](c5ccc(-c6scnc6C)cc5)[C@H](C)O)C(C)C)nn4)cc3)c2n1 [Example 187, (2S,4R)-1-((2S)-2-(4-(4-(((6-cyclopropyl-7-(6-fluoro-5-methyl-1H-indazol-4-yl)-2-((S)-2-methoxypropoxy)-4-(methyl((R)-pyrrolidin-3-yl)amino)quinazolin-8-yl)oxy)methyl)phenyl)-1H-1,2,3-triazol-1-yl)-3-methylbutanoyl)-4-hydroxy-N-((1R,2S)-2-hydroxy-1-(4-(4-methylthiazol-5-yl)phenyl)propyl)pyrrolidine-2-carboxamide]
KRAS (G12D)
  DC50: < 10 nM
AsPC-1 cells; Homo sapiens, ASPC1, 144 h
  IC50: < 10 nM

## CO[C@@H](C)COc1nc(N2C[C@@H]3C[C@H]2CN3)c2cc(C3CC3)c(-c3c(C)c(F)cc4[nH]ncc34)c(OCc3ccc(-c4cn([C@H](C(=O)N5C[C@H](O)C[C@H]5C(=O)N[C@H](C#Cc5cc(C)cc6[nH]ncc56)CO)C(C)C)nn4)cc3)c2n1 [Example 188, (2S,4R)-1-((2S)-2-(4-(4-(((4-((1S,4S)-2,5-diazabicyclo[2.2.1]heptan-2-yl)-6-cyclopropyl-7-(6-fluoro-5-methyl-1H-indazol-4-yl)-2-((S)-2-methoxypropoxy)quinazolin-8-yl)oxy)methyl)phenyl)-1H-1,2,3-triazol-1-yl)-3-methylbutanoyl)-4-hydroxy-N—((R)-1-hydroxy-4-(6-methyl-1H-indazol-4-yl)but-3-yn-2-yl)pyrrolidine-2-carboxamide]
KRAS (G12D)
  DC50: 10 to 100 nM
AsPC-1 cells; Homo sapiens, ASPC1, 144 h
  IC50: 10 to 100 nM

## CO[C@@H](C)COc1nc(N2CCNCC[C@H]2C)c2cc(C3CC3)c(-c3c(C)c(F)cc4[nH]ncc34)c(OCc3ccc(-c4cn([C@H](C(=O)N5C[C@H](O)C[C@H]5C(=O)N[C@@H](CO)c5ccc(-c6scnc6C)cc5)C(C)C)nn4)cc3)c2n1 [Example 189, (2S,4R)-1-((2S)-2-(4-(4-(((6-cyclopropyl-7-(6-fluoro-5-methyl-1H-indazol-4-yl)-2-((S)-2-methoxypropoxy)-4-((R)-7-methyl-1,4-diazepan-1-yl)quinazolin-8-yl)oxy)methyl)phenyl)-1H-1,2,3-triazol-1-yl)-3-methylbutanoyl)-4-hydroxy-N—((R)-2-hydroxy-1-(4-(4-methylthiazol-5-yl)phenyl)ethyl)pyrrolidine-2-carboxamide]
KRAS (G12D)
  DC50: < 10 nM
AsPC-1 cells; Homo sapiens, ASPC1, 144 h
  IC50: < 10 nM

## CO[C@@H](C)COc1nc(N2CCNCC[C@H]2C)c2cc(C3CC3)c(-c3c(C)c(F)cc4[nH]ncc34)c(OCc3ccc(-c4cn([C@H](C(=O)N5C[C@H](O)C[C@H]5C(=O)N[C@H](c5ccc(-c6scnc6C)cc5)[C@H](C)O)C(C)C)nn4)cc3)c2n1 [Example 190, (2S,4R)-1-((2S)-2-(4-(4-(((6-cyclopropyl-7-(6-fluoro-5-methyl-1H-indazol-4-yl)-2-((S)-2-methoxypropoxy)-4-((R)-7-methyl-1,4-diazepan-1-yl)quinazolin-8-yl)oxy)methyl)phenyl)-1H-1,2,3-triazol-1-yl)-3-methylbutanoyl)-4-hydroxy-N-((1R,2S)-2-hydroxy-1-(4-(4-methylthiazol-5-yl)phenyl)propyl)pyrrolidine-2-carboxamide]
KRAS (G12D)
  DC50: < 10 nM
AsPC-1 cells; Homo sapiens, ASPC1, 144 h
  IC50: < 10 nM
